According to article PMC6683035, “Extra Virgin Olive Oil Contains a Phenolic Inhibitor of the Histone Demethylase LSD1/KDM1A” (Nutrients, 2019):

Molecular target: T1, LSD1 (lysine-specific histone demethylase 1A, KDM1A) (Homo sapiens, UniProt O60341)
T1 construct: recombinant human LSD1 (BPS#50103)
Experiment: AlphaScreen demethylase assay with biotinylated histone H3 peptide substrate and purified recombinant LSD1
Format: biochemical

IC50: ~2500 nM
Compound: C/C=C(/C=O)[C@@H](CC=O)CC(=O)OCCc1ccc(O)c(O)c1 [oleacein]
